Laboratory results published in patent publication US20110039721A1, “METHOD FOR PREDICTION ABOUT CARCINOGENICITY OF SUBSTANCE IN RODENT” (Chemicals Evaluation and Research Institute, priority 2007, published 2011).

Tests used:
[1] = test system: mRNA expressed from the genes (A) to (D) in rat liver; test: Behavior of genes (mRNA expression level, oligo-DNA microarray) in rat liver after 28-day oral administration; type: in vivo; conditions: mRNA vs vehicle control group; for Behavior of gene caused by administration of chemical substance, Gene No. 4846 / Behavior of gene caused by administration of chemical substance, Gene No. 2026 / Behavior of gene caused by administration of chemical substance, Gene No. 4218 / Behavior of gene caused by administration of chemical substance, Gene No. 6182 / Behavior of gene caused by administration of chemical substance, Gene No. 5600: gene group (A); for Behavior of gene caused by administration of chemical substance, Gene No. 4846: Unigene No. Rn.144554; for Behavior of gene caused by administration of chemical substance, Gene No. 2026 / Behavior of gene caused by administration of chemical substance, Gene No. 4218: Unigene No. Rn.167075; for Behavior of gene caused by administration of chemical substance, Gene No. 6182: Unigene No. Rn.5834; for Behavior of gene caused by administration of chemical substance, Gene No. 5600: Unigene No. Rn.9836; for Behavior of gene caused by administration of chemical substance, Gene No. 1494 / Behavior of gene caused by administration of chemical substance, Gene No. 2045 / Behavior of gene caused by administration of chemical substance, Gene No. 2203: gene group (B); for Behavior of gene caused by administration of chemical substance, Gene No. 1494: Unigene No. Rn.1430; for Behavior of gene caused by administration of chemical substance, Gene No. 2045: Unigene No. Rn.19329; for Behavior of gene caused by administration of chemical substance, Gene No. 2203: Unigene No. Rn.21240; for Behavior of gene caused by administration of chemical substance, Gene No. 533 / Behavior of gene caused by administration of chemical substance, Gene No. 725 / Behavior of gene caused by administration of chemical substance, Gene No. 1163 / Behavior of gene caused by administration of chemical substance, Gene No. 4973 / Behavior of gene caused by administration of chemical substance, Gene No. 4095 / Behavior of gene caused by administration of chemical substance, Gene No. 1334 / Behavior of gene caused by administration of chemical substance, Gene No. 6620 / Behavior of gene caused by administration of chemical substance, Gene No. 6303 / Behavior of gene caused by administration of chemical substance, Gene No. 5878 / Behavior of gene caused by administration of chemical substance, Gene No. 1131 / Behavior of gene caused by administration of chemical substance, Gene No. 1562 / Behavior of gene caused by administration of chemical substance, Gene No. 1741 / Behavior of gene caused by administration of chemical substance, Gene No. 893 / Behavior of gene caused by administration of chemical substance, Gene No. 6026 / Behavior of gene caused by administration of chemical substance, Gene No. 154 / Behavior of gene caused by administration of chemical substance, Gene No. 1993 / Behavior of gene caused by administration of chemical substance, Gene No. 813 / Behavior of gene caused by administration of chemical substance, Gene No. 2494 / Behavior of gene caused by administration of chemical substance, Gene No. 2546 / Behavior of gene caused by administration of chemical substance, Gene No. 3776 / Behavior of gene caused by administration of chemical substance, Gene No. 3929 / Behavior of gene caused by administration of chemical substance, Gene No. 1119 / Behavior of gene caused by administration of chemical substance, Gene No. 6742 / Behavior of gene caused by administration of chemical substance, Gene No. 5634: gene group (C); for Behavior of gene caused by administration of chemical substance, Gene No. 533: Unigene No. Rn.106184; for Behavior of gene caused by administration of chemical substance, Gene No. 725: Unigene No. Rn.108075; for Behavior of gene caused by administration of chemical substance, Gene No. 1163: Unigene No. Rn.11766; for Behavior of gene caused by administration of chemical substance, Gene No. 4973: Unigene No. Rn.118529; for Behavior of gene caused by administration of chemical substance, Gene No. 4095: Unigene No. Rn.119024; for Behavior of gene caused by administration of chemical substance, Gene No. 1334 / Behavior of gene caused by administration of chemical substance, Gene No. 6620: Unigene No. Rn.120914; for Behavior of gene caused by administration of chemical substance, Gene No. 6303: Unigene No. Rn.123063; for Behavior of gene caused by administration of chemical substance, Gene No. 5878: Unigene No. Rn.143213; for Behavior of gene caused by administration of chemical substance, Gene No. 1131: Unigene No. Rn.144946; for Behavior of gene caused by administration of chemical substance, Gene No. 1562: Unigene No. Rn.14744; for Behavior of gene caused by administration of chemical substance, Gene No. 1741: Unigene No. Rn.1647; for Behavior of gene caused by administration of chemical substance, Gene No. 893: Unigene No. Rn.164817; for Behavior of gene caused by administration of chemical substance, Gene No. 6026: Unigene No. Rn.167685; for Behavior of gene caused by administration of chemical substance, Gene No. 154: Unigene No. Rn.185941; for Behavior of gene caused by administration of chemical substance, Gene No. 1993: Unigene No. Rn.18728; for Behavior of gene caused by administration of chemical substance, Gene No. 813: Unigene No. Rn.201760; for Behavior of gene caused by administration of chemical substance, Gene No. 2494: Unigene No. Rn.23969; for Behavior of gene caused by administration of chemical substance, Gene No. 2546: Unigene No. Rn.24561; for Behavior of gene caused by administration of chemical substance, Gene No. 3776: Unigene No. Rn.43232; for Behavior of gene caused by administration of chemical substance, Gene No. 3929: Unigene No. Rn.4620; for Behavior of gene caused by administration of chemical substance, Gene No. 1119: Unigene No. Rn.9757; for Behavior of gene caused by administration of chemical substance, Gene No. 6742: Unigene No. Rn.9779; for Behavior of gene caused by administration of chemical substance, Gene No. 5634: Unigene No. Rn.9862; for Behavior of gene caused by administration of chemical substance, Gene No. 5726: gene group (D), Unigene No. Rn.9939
Summary of the method: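 Liver mRNA levels were compared with matched vehicle groups, with a shift of at least 1.5-fold up or down deemed significant unless its direction disagreed with other carcinogens. Test substances were dosed orally by gavage daily for 28 days to 5-week-old male F344 rats, four per group.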

[2] = test system: liver; conditions: in vivo; cited from earlier work
[3] = test system: rodent; conditions: in vivo; cited from earlier work

Row | Compound | Behavior of gene caused by administration of chemical substance, Gene No. 4846 [1] | Behavior of gene caused by administration of chemical substance, Gene No. 2026 [1] | Behavior of gene caused by administration of chemical substance, Gene No. 4218 [1] | Behavior of gene caused by administration of chemical substance, Gene No. 6182 [1] | Behavior of gene caused by administration of chemical substance, Gene No. 5600 [1] | Behavior of gene caused by administration of chemical substance, Gene No. 1494 [1] | Behavior of gene caused by administration of chemical substance, Gene No. 2045 [1] | Behavior of gene caused by administration of chemical substance, Gene No. 2203 [1] | Behavior of gene caused by administration of chemical substance, Gene No. 533 [1] | Behavior of gene caused by administration of chemical substance, Gene No. 725 [1] | Behavior of gene caused by administration of chemical substance, Gene No. 1163 [1] | Behavior of gene caused by administration of chemical substance, Gene No. 4973 [1] | Behavior of gene caused by administration of chemical substance, Gene No. 4095 [1] | Behavior of gene caused by administration of chemical substance, Gene No. 1334 [1] | Behavior of gene caused by administration of chemical substance, Gene No. 6620 [1] | Behavior of gene caused by administration of chemical substance, Gene No. 6303 [1] | Behavior of gene caused by administration of chemical substance, Gene No. 5878 [1] | Behavior of gene caused by administration of chemical substance, Gene No. 1131 [1] | Behavior of gene caused by administration of chemical substance, Gene No. 1562 [1] | Behavior of gene caused by administration of chemical substance, Gene No. 1741 [1] | further results
1 | Cc1cccc(N=Nc2ccc(N(C)C)cc2)c1 [TS076, 3′-Methyl-4-dimethylaminoazobenzene] | + | + | + | + | + | + | + | − | + | + | − | + | + | − | − | + | − | − | + | + | Behavior of gene caused by administration of chemical substance, Gene No. 893 [1]: −; Behavior of gene caused by administration of chemical substance, Gene No. 6026 [1]: −; Behavior of gene caused by administration of chemical substance, Gene No. 154 [1]: +; Behavior of gene caused by administration of chemical substance, Gene No. 1993 [1]: +; Behavior of gene caused by administration of chemical substance, Gene No. 813 [1]: −; Behavior of gene caused by administration of chemical substance, Gene No. 2494 [1]: −; Behavior of gene caused by administration of chemical substance, Gene No. 2546 [1]: −; Behavior of gene caused by administration of chemical substance, Gene No. 3776 [1]: −; Behavior of gene caused by administration of chemical substance, Gene No. 3929 [1]: −; Behavior of gene caused by administration of chemical substance, Gene No. 1119 [1]: −; Behavior of gene caused by administration of chemical substance, Gene No. 6742 [1]: −; Behavior of gene caused by administration of chemical substance, Gene No. 5634 [1]: −; Behavior of gene caused by administration of chemical substance, Gene No. 5726 [1]: −; Liver carcinogenicity [2]: Cr+; Carcinogenicity [3]: C+
2 | CN(C)c1ccc(N=Nc2ccccc2)cc1 [TS077, 4-Dimethylaminoazobenzene] | − | − | − | + | − | + | + | − | − | − | − | − | − | − | − | + | − | − | − | − | Behavior of gene caused by administration of chemical substance, Gene No. 893 [1]: −; Behavior of gene caused by administration of chemical substance, Gene No. 6026 [1]: +; Behavior of gene caused by administration of chemical substance, Gene No. 154 [1]: −; Behavior of gene caused by administration of chemical substance, Gene No. 1993 [1]: −; Behavior of gene caused by administration of chemical substance, Gene No. 813 [1]: −; Behavior of gene caused by administration of chemical substance, Gene No. 2494 [1]: −; Behavior of gene caused by administration of chemical substance, Gene No. 2546 [1]: −; Behavior of gene caused by administration of chemical substance, Gene No. 3776 [1]: −; Behavior of gene caused by administration of chemical substance, Gene No. 3929 [1]: −; Behavior of gene caused by administration of chemical substance, Gene No. 1119 [1]: −; Behavior of gene caused by administration of chemical substance, Gene No. 6742 [1]: −; Behavior of gene caused by administration of chemical substance, Gene No. 5634 [1]: −; Behavior of gene caused by administration of chemical substance, Gene No. 5726 [1]: +; Liver carcinogenicity [2]: Cr+; Carcinogenicity [3]: C+
